± gives the standard deviation of the averaged measurements.
How the values were obtained:
Details in all cases: exposure time: 72 h
E21 [1] = patient-derived glioblastoma stem cells of mesenchymal subtype; assay: phenotypic distance (Euclidean, principal components) from DMSO controls (arbitrary units); higher = stronger morphological change
E31 [2] = patient-derived glioblastoma stem cells of proneural subtype; assay: as above
E57 [3] = patient-derived glioblastoma stem cells of mesenchymal subtype; assay: as above
E28 [4] = patient-derived glioblastoma stem cells of classical subtype; assay: as above
E13 [5] = patient-derived glioblastoma stem cells of classical subtype; assay: as above
FT3469 [6] = normal neural stem cell line; assay: as above
E34 [7] = patient-derived glioblastoma stem cells of proneural subtype; assay: as above
E21 [8] = assay: surviving fraction (nuclei count normalised to DMSO); higher = more cells surviving (less toxic)
E31 [9] = assay: as above
E57 [10] = assay: as above
E28 [11] = assay: as above
E13 [12] = assay: as above
FT3469 [13] = assay: as above
E34 [14] = assay: as above
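Wherever phenotypic distance (Euclidean, principal components) from DMSO controls is given: cell Painting imaging in 384-well plates, CellProfiler features reduced to at least 20 principal components, Euclidean distance versus same-plate DMSO vehicle wells (0.1% v/v), median over six images per well.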
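Wherever surviving fraction (nuclei count normalised to DMSO) is given: nuclei counted by high-content imaging of Hoechst-stained cells in laminin-coated 384-well plates, relative to 0.1% DMSO vehicle wells, with staurosporine as cell-death control.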

CC(C)(C)C1CCN(C(=O)n2ncc(C(O)(c3ccccc3)c3ccccc3)n2)CC1 [ML211]
Details | phenotypic distance | surviving fraction
E13 [5], 4.1 nM | 0.844 ± 0.46 | –
E13 [5], 12.3 nM | 0.731 ± 0.1 | –
E13 [5], 37 nM | 0.757 ± 0.42 | –
E13 [5], 111.1 nM | 0.461 ± 0.1 | –
E13 [5], 333.3 nM | 0.703 ± 0.23 | –
E13 [5], 1000 nM | 0.699 ± 0.15 | –
E13 [5], 3000 nM | 0.911 ± 0.42 | –
E13 [12], 4.1 nM | – | 0.909 ± 0.045
E13 [12], 12.3 nM | – | 0.883 ± 0.028
E13 [12], 37 nM | – | 0.918 ± 0.094
E13 [12], 111.1 nM | – | 0.985 ± 0.028
E13 [12], 333.3 nM | – | 0.984 ± 0.11
E13 [12], 1000 nM | – | 0.975 ± 0.066
E13 [12], 3000 nM | – | 0.916 ± 0.014
E21 [1], 4.1 nM | 0.863 ± 0.43 | –
E21 [1], 12.3 nM | 0.923 ± 0.047 | –
E21 [1], 37 nM | 0.671 ± 0.095 | –
E21 [1], 111.1 nM | 0.652 ± 0.073 | –
E21 [1], 333.3 nM | 0.683 ± 0.082 | –
E21 [1], 1000 nM | 0.885 ± 0.11 | –
E21 [1], 3000 nM | 0.961 ± 0.043 | –
E21 [8], 4.1 nM | – | 0.93 ± 0.12
E21 [8], 12.3 nM | – | 0.888 ± 0.034
E21 [8], 37 nM | – | 0.946 ± 0.084
E21 [8], 111.1 nM | – | 0.8973 ± 0.0015
E21 [8], 333.3 nM | – | 0.973 ± 0.044
E21 [8], 1000 nM | – | 0.9031 ± 0.0052
E21 [8], 3000 nM | – | 0.889 ± 0.058
E28 [4], 4.1 nM | 0.935 ± 0.43 | –
E28 [4], 12.3 nM | 0.886 ± 0.47 | –
E28 [4], 37 nM | 0.733 ± 0.039 | –
E28 [4], 111.1 nM | 0.678 ± 0.38 | –
E28 [4], 333.3 nM | 0.596 ± 0.17 | –
E28 [4], 1000 nM | 0.668 ± 0.1 | –
E28 [4], 3000 nM | 1.42 ± 0.16 | –
E28 [11], 4.1 nM | – | 1.09 ± 0.046
E28 [11], 12.3 nM | – | 1 ± 0.026
E28 [11], 37 nM | – | 1 ± 0.093
E28 [11], 111.1 nM | – | 1 ± 0.021
E28 [11], 333.3 nM | – | 0.987 ± 0.082
E28 [11], 1000 nM | – | 0.9874 ± 0.0069
E28 [11], 3000 nM | – | 0.883 ± 0.12
E31 [2], 4.1 nM | 0.563 ± 0.26 | –
E31 [2], 12.3 nM | 0.567 ± 0.34 | –
E31 [2], 37 nM | 0.644 ± 0.016 | –
E31 [2], 111.1 nM | 0.641 ± 0.47 | –
E31 [2], 333.3 nM | 1.05 ± 0.096 | –
E31 [2], 1000 nM | 0.871 ± 0.41 | –
E31 [2], 3000 nM | 1.12 ± 0.029 | –
E31 [9], 4.1 nM | – | 0.9689 ± 0.0042
E31 [9], 12.3 nM | – | 0.979 ± 0.061
E31 [9], 37 nM | – | 0.993 ± 0.022
E31 [9], 111.1 nM | – | 0.928 ± 0.046
E31 [9], 333.3 nM | – | 1.04 ± 0.13
E31 [9], 1000 nM | – | 0.973 ± 0.047
E31 [9], 3000 nM | – | 0.823 ± 0.037
E34 [7], 4.1 nM | 1.21 ± 0.68 | –
E34 [7], 12.3 nM | 0.912 ± 0.38 | –
E34 [7], 37 nM | 1.05 ± 0.22 | –
E34 [7], 111.1 nM | 0.782 ± 0.31 | –
E34 [7], 333.3 nM | 0.763 ± 0.082 | –
E34 [7], 1000 nM | 0.734 ± 0.23 | –
E34 [7], 3000 nM | 0.728 ± 0.27 | –
E34 [14], 4.1 nM | – | 0.956 ± 0.021
E34 [14], 12.3 nM | – | 0.941 ± 0.11
E34 [14], 37 nM | – | 0.95 ± 0.072
E34 [14], 111.1 nM | – | 0.868 ± 0.04
E34 [14], 333.3 nM | – | 0.976 ± 0.2
E34 [14], 1000 nM | – | 0.965 ± 0.17
E34 [14], 3000 nM | – | 0.8932 ± 0.0064
E57 [3], 4.1 nM | 0.588 ± 0.28 | –
E57 [3], 12.3 nM | 0.447 ± 0.17 | –
E57 [3], 37 nM | 0.552 ± 0.13 | –
E57 [3], 111.1 nM | 0.483 ± 0.017 | –
E57 [3], 333.3 nM | 0.642 ± 0.092 | –
E57 [3], 1000 nM | 0.6 ± 0.04 | –
E57 [3], 3000 nM | 0.835 ± 0.43 | –
E57 [10], 4.1 nM | – | 0.995 ± 0.057
E57 [10], 12.3 nM | – | 1 ± 0.074
E57 [10], 37 nM | – | 0.9744 ± 0.0049
E57 [10], 111.1 nM | – | 1.02 ± 0.036
E57 [10], 333.3 nM | – | 0.964 ± 0.046
E57 [10], 1000 nM | – | 0.974 ± 0.034
E57 [10], 3000 nM | – | 0.894 ± 0.039
FT3469 [6], 4.1 nM | 1.1 ± 0.63 | –
FT3469 [6], 12.3 nM | 0.699 ± 0.37 | –
FT3469 [6], 37 nM | 0.637 ± 0.11 | –
FT3469 [6], 111.1 nM | 0.748 ± 0.2 | –
FT3469 [6], 333.3 nM | 0.841 ± 0.04 | –
FT3469 [6], 1000 nM | 1.25 ± 0.4 | –
FT3469 [6], 3000 nM | 1.74 ± 0.35 | –
FT3469 [13], 4.1 nM | – | 0.879 ± 0.031
FT3469 [13], 12.3 nM | – | 1.008 ± 0.0099
FT3469 [13], 37 nM | – | 0.989 ± 0.034
FT3469 [13], 111.1 nM | – | 0.934 ± 0.06
FT3469 [13], 333.3 nM | – | 0.885 ± 0.032
FT3469 [13], 1000 nM | – | 0.816 ± 0.046
FT3469 [13], 3000 nM | – | 0.817 ± 0.058

COc1cccc2c(NCc3ccccc3)nc(-n3c(N)nc4ccccc43)nc12 [ML240]
Details | phenotypic distance | surviving fraction
E13 [5], 4.1 nM | 0.694 | –
E13 [5], 12.3 nM | 0.435 | –
E13 [5], 37 nM | 0.787 | –
E13 [5], 111.1 nM | 0.753 | –
E13 [5], 333.3 nM | 0.67 | –
E13 [5], 1000 nM | 8.35 | –
E13 [5], 3000 nM | 10.2 | –
E13 [12], 4.1 nM | – | 1.1
E13 [12], 12.3 nM | – | 0.999
E13 [12], 37 nM | – | 1.1
E13 [12], 111.1 nM | – | 1.02
E13 [12], 333.3 nM | – | 0.985
E13 [12], 1000 nM | – | 0.147
E13 [12], 3000 nM | – | 0.00521
E21 [1], 4.1 nM | 0.814 | –
E21 [1], 12.3 nM | 0.418 | –
E21 [1], 37 nM | 0.532 | –
E21 [1], 111.1 nM | 0.655 | –
E21 [1], 333.3 nM | 0.51 | –
E21 [1], 1000 nM | 1.08 | –
E21 [1], 3000 nM | 13.5 | –
E21 [8], 4.1 nM | – | 1.05
E21 [8], 12.3 nM | – | 1.01
E21 [8], 37 nM | – | 1.02
E21 [8], 111.1 nM | – | 1.1
E21 [8], 333.3 nM | – | 1.03
E21 [8], 1000 nM | – | 1.11
E21 [8], 3000 nM | – | 0.0028
E28 [4], 4.1 nM | 0.413 | –
E28 [4], 12.3 nM | 0.802 | –
E28 [4], 37 nM | 0.589 | –
E28 [4], 111.1 nM | 0.977 | –
E28 [4], 333.3 nM | 0.531 | –
E28 [4], 1000 nM | 5.33 | –
E28 [4], 3000 nM | 7.6 | –
E28 [11], 4.1 nM | – | 1.09
E28 [11], 12.3 nM | – | 0.996
E28 [11], 37 nM | – | 1.01
E28 [11], 111.1 nM | – | 1.17
E28 [11], 333.3 nM | – | 1.03
E28 [11], 1000 nM | – | 0.32
E28 [11], 3000 nM | – | 0.0108
E31 [2], 4.1 nM | 0.647 | –
E31 [2], 12.3 nM | 0.799 | –
E31 [2], 37 nM | 0.394 | –
E31 [2], 111.1 nM | 0.491 | –
E31 [2], 333.3 nM | 0.297 | –
E31 [2], 1000 nM | 6.73 | –
E31 [2], 3000 nM | 18.7 | –
E31 [9], 4.1 nM | – | 0.934
E31 [9], 12.3 nM | – | 1.36
E31 [9], 37 nM | – | 1.1
E31 [9], 111.1 nM | – | 1.17
E31 [9], 333.3 nM | – | 1.19
E31 [9], 1000 nM | – | 0.0987
E31 [9], 3000 nM | – | 0
E34 [7], 4.1 nM | 0.596 | –
E34 [7], 12.3 nM | 0.636 | –
E34 [7], 37 nM | 0.602 | –
E34 [7], 111.1 nM | 0.587 | –
E34 [7], 333.3 nM | 0.358 | –
E34 [7], 1000 nM | 1.49 | –
E34 [7], 3000 nM | 14.2 | –
E34 [14], 4.1 nM | – | 1.18
E34 [14], 12.3 nM | – | 1.12
E34 [14], 37 nM | – | 1.04
E34 [14], 111.1 nM | – | 1.05
E34 [14], 333.3 nM | – | 1.18
E34 [14], 1000 nM | – | 0.54
E34 [14], 3000 nM | – | 0.00732
E57 [3], 4.1 nM | 0.375 | –
E57 [3], 12.3 nM | 0.566 | –
E57 [3], 37 nM | 0.385 | –
E57 [3], 111.1 nM | 0.473 | –
E57 [3], 333.3 nM | 1.84 | –
E57 [3], 1000 nM | 4.85 | –
E57 [3], 3000 nM | 6.71 | –
E57 [10], 4.1 nM | – | 0.984
E57 [10], 12.3 nM | – | 0.993
E57 [10], 37 nM | – | 1.05
E57 [10], 111.1 nM | – | 0.972
E57 [10], 333.3 nM | – | 1.08
E57 [10], 1000 nM | – | 0.255
E57 [10], 3000 nM | – | 0.00471
FT3469 [6], 4.1 nM | 0.656 | –
FT3469 [6], 12.3 nM | 0.706 | –
FT3469 [6], 37 nM | 0.538 | –
FT3469 [6], 111.1 nM | 1.16 | –
FT3469 [6], 333.3 nM | 0.736 | –
FT3469 [6], 1000 nM | 1.85 | –
FT3469 [6], 3000 nM | 11.7 | –
FT3469 [13], 4.1 nM | – | 0.963
FT3469 [13], 12.3 nM | – | 1.03
FT3469 [13], 37 nM | – | 1.15
FT3469 [13], 111.1 nM | – | 1.33
FT3469 [13], 333.3 nM | – | 1.25
FT3469 [13], 1000 nM | – | 0.68
FT3469 [13], 3000 nM | – | 0.00884
